Counter-ions that a name gives are not always drawn.
Assays:
[1] = test system: PBMCs; assay: Cytokine and chemokine profile of P4N treated PBMC, Bio-Plex; format: cell-based, human; settings: 3 μM P4N
Procedure: PBMCs isolated from 7 healthy donors were treated with 3 μM of P4N for 48 h. Supernatants were collected and analyzed for human cytokines using the Bio-Plex assay. Shown are the changed results of the production of 27 human cytokines when PBMCs were treated with P4N in three independent experiments. The levels of IL-4, IL-5, IL-7, IL-9, Eotaxin and FGF were undetectable.
The effects of P4N on the profile of cytokine expression. PBMCs (2×10^6 cells/ml) from seven healthy individuals were seeded in each well of a 24-well microplate and treated with 3 μM of P4N for 24 h. Cell supernatants were collected for analysis of cytokine levels by a cytokine multiplex assay using the Bio-Plex Pro Human Cytokine Standard Group I 27-Plex, following the manufacturer's protocol (Bio-Rad, Hercules, Calif.). The change levels of cytokine were calculated as follows: Change level=(value of the P4N-treated cells)/(value of the untreated cells)×100%.

[2] = test system: THP-1 cells; assay: Gene expression profiling of P4N treated THP-1 cells, cDNA microarray; format: cell-based; settings: THP-1 cells following P4N treatment
Procedure: Gene expression profiling and analysis. Amplification and labeling of RNA was performed with the Illumina®TotalPrep RNA Amplification Kit from Life Technologies (Ambion, Applied Biosystems, Foster City, Calif.) using 150 ng of RNA per sample. Labeled RNA (750 ng) was hybridized to Illumina HT-12 v4 Expression BeadChips (˜48,000 probes) and processed according to the manufacturer's protocol. Expression data underwent quality control and normalization by GenomeStudio (Illumina, San Diego, Calif.). Genes differentially expressed in the cells treated with P4N relative to the untreated cells were identified, with special emphasis given to genes involved in cytokine-cytokine receptor interaction (KEGG pathway). […] The identified genes were subjected to the Database for Annotation, Visualization and Integrated Discovery (DAVID) (david.abcc.ncifcrf.gov/) for Gene Ontology (GO) and KEGG pathway enrichment analysis. A P-value <0.05 was set as threshold of enrichment analysis.

[3] = test system: Raji or OKT3 cells; assay: Cell proliferation assay with THP-1-conditioned media; format: cell-based; settings: conditioned medium from THP-1 cells treated with P4N, 48 h, MTT
Procedure: FIGS. 5A-5F depict the expression of Activin A/BAFF induced by P4N treatments. (A) P4N induced Activin A or BAFF expression in human PBMCs as determined by RT-PCR. S1-S5 display different individual blood samples collected from 5 different human donors; N, no treatment; P, P4N-treatment (3 μM). The change in Activin A and BAFF expression (mean of 5 patients) relative to the control (NC) is plotted as a histogram (B) The effect of increasing dosages of P4N for 12 h on mRNA and protein levels of Activin A or BAFF in THP-1 cells was analyzed by RT-PCR and ELISA. (C) The effect of 6 μM P4N on mRNA and protein levels of Activin A or BAFF in THP-1 cells was determined at a different time period. (D) The effect of different inhibitors on Activin A-induced BAFF expression was examined. The expression of BAFF mRNA in inhibitor-treated THP-1 cells was determined by RT-PCR, and (E) BAFF protein secretion was measured by ELISA. (F) The effect of THP-1 conditioned media on the proliferation of Raji cells and OKT3 hybridoma cells were determined. Media were harvested, in which THP-1 cells were pre-treated without inhibitor (2) or with SB431542 (3), A83-01 (4), SIS3 (5), SB203580 (6) or PD98059 (7) and then treated with P4N for 12 h. The results are expressed as % viable cells relative to the control (NC, media from untreated THP-1 cells). All values are the means of triplicate samples±SEM. The significant differences in the results of inhibitor and P4N-treated groups compared with the untreated group are indicated by ***P<0.001.
Cell proliferation assay. Raji or OKT3 cells (1×10^4/well) were seeded and treated with THP-1-conditioned media. After 48 h the number of viable cells was determined by MTT assay. The indices of cell proliferation were calculated as previously described.

[4] = test system: mouse splenocytes; assay: Activin A and BAFF expression in mouse splenocytes; format: cell-based; settings: low dose P4N
Procedure: FIGS. 14A-14C depict P4N-induced mouse B cell proliferation via the Activin A/BAFF pathway. (A) The proliferation of P4N-treated splenocytes. Splenocytes isolated from three mice were individually treated with increasing concentrations of P4N for 48 h and their proliferation was analyzed by MTT assay. The data are reported as the proliferation index. […] (B) The proliferation of B cells in mouse splenocytes treated with low doses of P4N. After treatment with P4N for 48 h, B-cells were identified by CD19 surface marker staining and the cell number was calculated following a flow cytometer analysis. […] Levels of Activin A and BAFF transcripts were measured by RT-PCR. Each sample obtained from 3 different mice; N, no treatment; P, P4N-treatment.
Reverse transcription PCR. Human PBMCs or THP-1 cells were treated with P4N, and then the mRNA expression of INHBA and BAFF in these cells was measured by reverse transcription PCR. Briefly, total cellular RNA was extracted with Trizol reagent (Invitrogen) and reverse-transcribed into cDNA using the Superscript RT-kit (Invitrogen). The cDNA of INHBA and BAFF were then amplified by PCR. GAPDH cDNA in the samples was used to normalize the loading amounts in each reaction. Finally, PCR products were resolved by electrophoresis on 2% agarose gels and visualized with ethidium bromide.

[5] = test system: CT-26 cells; assay: Binding of anti-sera to CT-26 tumor tissue and cell surface antigens; set-up: species or system mouse; settings: flow cytometry, FIG. 15
Procedure: FIG. 15 is a graph showing the affinities of anti-sera against CT-26 cells after different lengths of incubation. Tumor antigens on the surface of CT26 cells were indirectly probed with P4N and PBS anti-sera and FITC-conjugated goat anti-mouse IgG antibody. The specific fluorescent activities were measured by flow cytometry.
Sections of CT-26 tumors from untreated mice were incubated with a 200-fold dilution of normal sera, PBS anti-sera or P4N anti-sera at 4° C. overnight. Sequentially, the sections were recognized using an HRP-conjugated anti-mouse IgG antibody (1:1500 dilution; Santa Cruz Biotechnology), and then developed, counterstained and photographed as described above.
Immunofluorescence analysis of cell surface tumor antigens. CT-26 cells were seeded on glass cover slides, and fixed with 4% (w/w) paraformaldehyde The fixed cells were then incubated with normal sera, PBS anti-sera or P4N anti-sera for 1 h and detected with secondary antibodies conjugated to Alexa Fluor 568 (Molecular Probes, Eugene, USA). Alexa Fluor 488-conjugated Concanavalin A (ConA; Molecular Probes) and DAPI (Molecular Probes) were used to label the plasma membrane and nucleus. The images of tumor antigens recognized by the anti-sera were photographed at a 400× magnification using a Zeiss LSM 510 META confocal microscope (Carl Zeiss, Jena, Germany).

In the case of `C[C@H](Cc1ccc(OCCN2CCCCC2)c(OCCN2CCCCC2)c1)[C@@H](C)Cc1ccc(OCCN2CCCCC2)c(OCCN2CCCCC2)c1` [P4N, meso-2,3-dimethyl-1,4-bis(3,4-[2-(piperidino)ethoxyphenyl])butane tetrakishydrochloride salt], the “levels of pro-inflammatory cytokines (TNF-α, IL-1P and IL-6) and chemokines (IL-8, IP-10, MIP-1α, MIP-1β and RANTES)” value [1] is reported as “significantly increased”, the “levels of IL-4, IL-5, IL-7, IL-9, Eotaxin and FGF” value ([1]; 48 h) is reported as “undetectable” and the “up-regulated genes of cytokine-cytokine interaction (KEGG pathway)” value [2] is reported as 26. For the same compound, the “up-regulated genes of growth factor activity (GO: 0008083)” value [2] was 10, the “proliferation of Raji or OKT3 cells” value [3] was “increased the proliferation” and the “gene expression and protein production of Activin A and BAFF” value [4] was “increase their gene expression and protein production”. The “binding affinities of EAA” value [5] was “enhanced their binding affinities”.
